Measured values reported in patent US20190321291A1, “3D Printing and Drug Delivery” (Biogelx Limited, priority 2016, published 2019).
Values joined by “and” are separate entries in the source; they are usually repeats but may differ in a detail not shown here. Equal values may be shown once.

Test: Drug release assay from Fmoc-FF/S hydrogel into PBS release buffer, HPLC analysis
Assay type: physicochemical
Conditions: for release profile from the hydrogel compared with control PBS solution: Fmoc-FF/S hydrogel; for duration of sustained release from the gel: 7-day study; for time over which significant drug concentration continued to be released: gel
Protocol: An 1100 Series high-performance liquid chromatography pump (Agilent, USA) was used for the analysis which was performed using acetonitrile with 0.1% TFA and water with 0.1% TFA. […] This concentration was kept constant until 16 mins; after that the gradient was decreased, reaching 40% (v/v) acetonitrile in water at 19 mins. The data was then processed manually using the software ‘Agilent Chemstation.’
The triplicate samples of release buffer were analysed by HPLC, and for the peaks corresponding to each model drug compound the peak area was measured. The average peak area was recorded, and using a standard curve prepared for each compound the concentration of each was determined.
At each of the specified time points the release buffer remaining in the wells was transferred to HPLC vials and stored at 4° C. until HPLC analysis was performed.
An 1100 Series high-performance liquid chromatography pump (Agilent, USA) was used for the analysis which was performed using acetonitrile with 0.1% TFA and water with 0.1% TFA. […] This concentration was kept constant until 16 mins when the gradient was decreased to 40% (v/v) acetonitrile in water at 19 mins. The data was then processed manually using the software ‘Agilent Chemstation.’
The triplicate samples of release buffer were analysed by HPLC, and for the peaks corresponding to each model drug compound the peak area was measured. The average peak area was recorded, and using standard curve prepared for each compound the concentration of each was determined.

[1] = 30 min, 2 mM control solution of drug in PBS, release buffer PBS 37° C.
[2] = 30 min, drug in Fmoc-FF/S gel, release buffer PBS 37° C.

| Structure (SMILES) | release profile from the hydrogel compared with control PBS solution | Concentration (ug/mL) Control [1] | Concentration (ug/mL) Gel [2] | Concentration (ug/mL) Gel (3 h, Fmoc-FF/S gel) | Concentration (ug/mL) Control (3 h, control solution in PBS) | Concentration (ug/mL) Gel (6 h, Fmoc-FF/S gel) | Concentration (ug/mL) Control (6 h, control solution in PBS) | Concentration (ug/mL) Gel (9 h, Fmoc-FF/S gel) | Concentration (ug/mL) Control (9 h, control solution in PBS) | Concentration (ug/mL) Gel (24 h, Fmoc-FF/S gel) | Concentration (ug/mL) Control (24 h, control solution in PBS) | Concentration (ug/mL) Gel (48 h, Fmoc-FF/S gel) | Concentration (ug/mL) Control (48 h, control solution in PBS) | Concentration (ug/mL) Gel (72 h, Fmoc-FF/S gel) | Concentration (ug/mL) Control (72 h, control solution in PBS) | Concentration (ug/mL) Gel (5 d, Fmoc-FF/S gel) | Concentration (ug/mL) Control (5 d, control solution in PBS) | Concentration (ug/mL) Gel (7 d, Fmoc-FF/S gel) | Concentration (ug/mL) Control (7 d, control solution in PBS) | duration of sustained release from the gel (Fmoc-FF/S gel) | also measured |
| --- | --- | --- | --- | --- | --- | --- | --- | --- | --- | --- | --- | --- | --- | --- | --- | --- | --- | --- | --- | --- | --- |
| CC(C)n1c(/C=C/[C@H](O)C[C@H](O)CC(=O)O)c(-c2ccc(F)cc2)c2ccccc21 (racemic) [Fluvastatin] | slower | – | – | – | – | – | – | – | – | – | – | – | – | – | – | – | – | – | – | – | – |
| CC[C@H](C)C(=O)O[C@H]1C[C@H](O)C=C2C=C[C@H](C)[C@H](CC[C@@H](O)C[C@@H](O)CC(=O)O)[C@H]21 [Pravastatin] | slower | – | – | – | – | – | – | – | – | – | – | – | – | – | – | – | – | – | – | – | – |
| CC(C)NCC(O)COc1cccc2ccccc12 (stereo not drawn) [Propranolol] | altered significantly | 17.8 µg/mL | 0.03 µg/mL | 7.02 µg/mL | 36.4 µg/mL | 5.38 µg/mL | 0.06 µg/mL | 4.61 µg/mL | 0 µg/mL | 7.78 µg/mL | 0 µg/mL | 7.49 µg/mL | 0 µg/mL | 4.02 µg/mL | 0 µg/mL | 3.81 µg/mL | 0 µg/mL | 2.05 µg/mL | 0 µg/mL | > 7 days and 7 days | time by which drug release was below measurable limits (control): ≤ 9 h; time over which significant drug concentration continued to be released (concentration of the peptides 10 mM): ≥ 72 h; time over which significant drug concentration continued to be released (concentration of the peptides 40 mM): ≥ 72 h |
| CC(C)NCC(O)COc1ccc(CCOCC2CC2)cc1 (stereo not drawn) [Betaxolol] | – | 10.34 µg/mL | 0.67 µg/mL | 9.08 µg/mL | 22.71 µg/mL | 6.37 µg/mL | 0.90 µg/mL | 2.98 µg/mL | 0.07 µg/mL | 5.15 µg/mL | 0 µg/mL | 1.49 µg/mL | 0 µg/mL | 0.27 µg/mL | 0 µg/mL | 0.11 µg/mL | 0 µg/mL | 0 µg/mL | 0 µg/mL | 5 days | release time from the gel (10 mM Fmoc-FF/S gel): 5 days; release time from the control insert (control solution in PBS): 9 h |
| CC(C)NCC(O)c1ccc(NS(C)(=O)=O)cc1 (stereo not drawn) [Sotalol] | slower | – | – | – | – | – | – | – | – | – | – | – | – | – | – | – | – | – | – | – | – |
| C=C[C@H]1C[N@]2CC[C@H]1C[C@@H]2[C@@H](O)c1ccnc2ccc(OC)cc12 [Quinidine] | – | – | – | – | – | – | – | – | – | – | – | – | – | – | – | – | – | – | – | 7 days | drug still present in the remaining gel residue at the end of the experiment (10 mM Fmoc-FF/S gel, HPLC, end of 7-day study): 4.5%; release time from the control insert (control solution in PBS): 9 h; total release corresponding to control results (control solution in PBS): 85% |
